The text below walks through data of ChEMBL document CHEMBL4184331 (J Med Chem, 2018).

Calls of active or inactive are those of the source. The rule behind the calls is not given here. Some results are limits rather than exact numbers.

For series [1], the target named is T1, Glucocorticoid receptor (Homo sapiens, UniProt P04150).
T1 sequence (P04150 whole entry): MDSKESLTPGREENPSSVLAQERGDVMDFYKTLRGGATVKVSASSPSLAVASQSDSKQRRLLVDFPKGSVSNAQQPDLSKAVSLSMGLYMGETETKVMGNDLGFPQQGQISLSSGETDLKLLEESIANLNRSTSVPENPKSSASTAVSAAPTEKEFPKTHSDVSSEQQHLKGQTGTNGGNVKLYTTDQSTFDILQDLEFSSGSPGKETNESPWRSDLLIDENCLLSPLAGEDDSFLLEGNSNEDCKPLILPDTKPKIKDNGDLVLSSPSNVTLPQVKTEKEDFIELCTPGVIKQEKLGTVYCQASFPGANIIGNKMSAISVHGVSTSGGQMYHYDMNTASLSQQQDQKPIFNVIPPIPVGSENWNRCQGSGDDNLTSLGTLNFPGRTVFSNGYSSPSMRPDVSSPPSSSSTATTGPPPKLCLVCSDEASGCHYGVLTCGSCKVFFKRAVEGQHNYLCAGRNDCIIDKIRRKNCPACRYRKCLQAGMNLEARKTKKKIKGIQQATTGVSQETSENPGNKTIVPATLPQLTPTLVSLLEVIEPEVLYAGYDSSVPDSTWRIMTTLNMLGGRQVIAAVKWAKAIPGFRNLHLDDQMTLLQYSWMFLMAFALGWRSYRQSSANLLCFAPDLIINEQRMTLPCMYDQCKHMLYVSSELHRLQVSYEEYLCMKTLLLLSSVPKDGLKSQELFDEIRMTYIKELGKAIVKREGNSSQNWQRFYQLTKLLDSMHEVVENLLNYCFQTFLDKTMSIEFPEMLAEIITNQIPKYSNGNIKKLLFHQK
Description: Induction of nuclear translocation of human recombinant ProLabel-tagged glucocorticoid receptor expressed in CHO-K1 cells after 3 hrs by luminescence method

The target of series [2] is T2, Mineralocorticoid receptor (Homo sapiens, UniProt P08235).
T2 sequence (P08235 whole entry): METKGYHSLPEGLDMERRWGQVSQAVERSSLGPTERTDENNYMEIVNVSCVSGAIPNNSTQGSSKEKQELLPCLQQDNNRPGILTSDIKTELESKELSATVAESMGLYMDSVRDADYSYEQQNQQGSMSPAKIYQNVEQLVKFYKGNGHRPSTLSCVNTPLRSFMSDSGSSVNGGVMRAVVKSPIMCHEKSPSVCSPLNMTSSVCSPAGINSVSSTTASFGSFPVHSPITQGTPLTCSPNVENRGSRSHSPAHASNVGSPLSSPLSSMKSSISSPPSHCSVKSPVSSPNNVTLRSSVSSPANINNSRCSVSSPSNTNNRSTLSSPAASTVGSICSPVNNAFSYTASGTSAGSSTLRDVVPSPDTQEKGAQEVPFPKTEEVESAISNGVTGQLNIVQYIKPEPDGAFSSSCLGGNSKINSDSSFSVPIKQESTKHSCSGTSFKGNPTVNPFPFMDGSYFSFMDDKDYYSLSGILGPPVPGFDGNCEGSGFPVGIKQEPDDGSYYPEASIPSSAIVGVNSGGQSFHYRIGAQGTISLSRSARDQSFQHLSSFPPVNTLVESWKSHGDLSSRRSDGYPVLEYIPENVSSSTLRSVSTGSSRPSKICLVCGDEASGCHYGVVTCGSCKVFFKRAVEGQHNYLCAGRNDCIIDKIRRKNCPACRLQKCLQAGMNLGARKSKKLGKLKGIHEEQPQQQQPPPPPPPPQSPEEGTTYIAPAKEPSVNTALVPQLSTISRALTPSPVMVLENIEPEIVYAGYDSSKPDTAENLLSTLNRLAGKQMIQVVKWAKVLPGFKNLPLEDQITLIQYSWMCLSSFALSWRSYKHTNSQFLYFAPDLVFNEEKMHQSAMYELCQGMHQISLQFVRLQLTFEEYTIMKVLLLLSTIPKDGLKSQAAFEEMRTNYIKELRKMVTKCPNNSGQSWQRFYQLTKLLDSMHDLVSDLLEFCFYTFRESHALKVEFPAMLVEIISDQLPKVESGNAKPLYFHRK
Description: Induction of nuclear translocation of human recombinant ProLabel-tagged mineralocorticoid receptor expressed in CHO-K1 cells after 3 hrs by luminescence method

Series [3] has as its target T1, Glucocorticoid receptor. Kind of series: biochemical.
Description: Displacement of [3H]dexamethasone from human recombinant glucocorticoid receptor expressed in insect cells after 24 hrs by scintillation proximity assay
Series [4] concerns the target T3, Glucocorticoid receptor (Homo sapiens) (UniProt P04150).
T3 sequence (whole entry): T1 sequence (P04150 whole entry)
Kind of series: Displacement of [3H]dexamethasone from human recombinant glucocorticoid receptor expressed in insect cells at 1000 nM after 24 hrs by scintillation proximity assay relative to control. In general terms: Loss of bound radioactivity is the signal in a displacement assay; it reports binding, not function.

For another series, the system named is RAW264.7. In words: cells. Conditions: Mus musculus.
Series [5] in a line: MRTlast in Sprague-Dawley rat plasma at 1 umol/kg, it by HPLC-MS/MS method. As to conditions: inhaled or intranasal. It is filed as ADME, cell-free.
The nature of series [6]: Cmax in Sprague-Dawley rat lung at 1 umol/kg, it by HPLC-MS/MS method. Conditions: in vivo, inhaled_or_intranasal. Details: dose 1 umol/kg. It is filed as ADME, tissue-based.
The nature of series [7]: AUClast in Sprague-Dawley rat lung at 1 umol/kg, it by HPLC-MS/MS method. It is filed as ADME, tissue-based. As to conditions: in vivo, inhaled_or_intranasal.
The nature of series [8]: MRTlast in Sprague-Dawley rat lung at 1 umol/kg, it by HPLC-MS/MS method. Type of series: ADME, tissue-based. As to conditions: inhaled or intranasal.
The nature of series [9]: AUClast in Sprague-Dawley rat plasma at 1 umol/kg, it by HPLC-MS/MS method. It is filed as ADME, cell-free. As to conditions: inhaled or intranasal.
Series [10] is described as follows: Cmax in Sprague-Dawley rat plasma at 1 umol/kg, it by HPLC-MS/MS method. Type of series: ADME, cell-free. Details: dose 1 umol/kg. As to conditions: inhaled or intranasal.
Series [11] relates to Rattus norvegicus. Kind of series: Antiinflammatory activity in LPS-induced Sprague-Dawley rat neutrophilic lung inflammation model assessed as inhibition of neutrophilic infiltration in bronchoalveolar lavage at 0.3 mg/kg, it preincubated for 1 hr followed by LPS challenge measured after 4 hrs relative to control. Type of series: functional.
Series [12] relates to Rattus norvegicus. Kind of series: Antiinflammatory activity in it dosed LPS-induced Sprague-Dawley rat neutrophilic lung inflammation model assessed as inhibition of neutrophilic infiltration in bronchoalveolar lavage preincubated for 1 hr followed by LPS challenge measured after 4 hrs. Type of series: functional. As to conditions: read-out: ID50 (the source's name).
The test system of series [13] is Rattus norvegicus. Kind of series: Antiinflammatory activity in LPS-induced Sprague-Dawley rat neutrophilic lung inflammation model assessed as inhibition of neutrophilic infiltration in bronchoalveolar lavage at 0.1 mg/kg, it preincubated for 1 hr followed by LPS challenge measured after 4 hrs relative to control. It is filed as functional.
The subject of series [14] is Rattus norvegicus. In words: Antiinflammatory activity in LPS-induced Sprague-Dawley rat neutrophilic lung inflammation model assessed as inhibition of neutrophilic infiltration in bronchoalveolar lavage at 0.03 mg/kg, it preincubated for 1 hr followed by LPS challenge measured after 4 hrs relative to control. It is filed as functional.
Series [15] relates to Rattus norvegicus. Kind of series: Antiinflammatory activity in LPS-induced Sprague-Dawley rat neutrophilic lung inflammation model assessed as inhibition of neutrophilic infiltration in bronchoalveolar lavage at 1 mg/kg, it preincubated for 1 hr followed by LPS challenge measured after 4 hrs relative to control. Type of series: functional.
The species entered for series [16] is Rattus norvegicus. Kind of series: Antiinflammatory activity in LPS-induced Sprague-Dawley rat neutrophilic lung inflammation model assessed as inhibition of neutrophilic infiltration in bronchoalveolar lavage at ID80, it preincubated for 24 hrs followed by LPS challenge measured after 4 hrs relative to control. It is filed as functional.
The subject of series [17] is Rattus norvegicus. In words: Antiinflammatory activity in LPS-induced Sprague-Dawley rat neutrophilic lung inflammation model assessed as inhibition of neutrophilic infiltration in bronchoalveolar lavage at 3 mg/kg, it preincubated for 1 hr followed by LPS challenge measured after 4 hrs relative to control. It is filed as functional.

Description for RAW264.7: Antiinflammatory activity in mouse RAW264.7 cells assessed as inhibition of LPS-induced nitric oxide release preincubated for 15 mins followed by LPS challenge measured after 18 hrs by Griess assay
Description for physchem: Dissociation constant, pKa of the compound

Usually EC50 stands for the concentration at which the effect is half-maximal. A lower EC50 goes with a more potent agent. The term Ki denotes the dissociation constant of the complex between target and ligand, obtained from inhibition or displacement. A lower Ki goes with a stronger hold on the target. `CC(C)CCN1C[C@@H]2C[C@H]3[C@@H]4C[C@H](F)C5=CC(=O)C=C[C@]5(C)[C@@]4(F)[C@@H](O)C[C@]3(C)[C@]2(C(=O)SCF)C1`: the results for the EC50 (on Glucocorticoid receptor [1]; in series [2]) were 57 nM and above 3000 nM, respectively. This compound gave a Ki at Glucocorticoid receptor [3] of 4.8 nM.
As usually defined, the inhibition is the change of the read-out against control, counted positive when it falls. As a reminder, the pKa is the negative logarithm of the acid dissociation constant. A lower pKa goes with a stronger acid or weaker base. Turning to `C[C@]12C=CC(=O)C=C1[C@@H](F)C[C@H]1[C@@H]3C[C@H]4CNC[C@@]4(C(=O)CO)[C@@]3(C)C[C@H](O)[C@@]12F`, the inhibition in series [4] is 40%. Besides, the pKa in “physchem” came to 8.82.
Broadly, the IC50 is the concentration needed to halve the response being measured. High values mean weaker potency, low ones greater potency. Consider `C[C@]12C=CC(=O)C=C1[C@@H](F)C[C@H]1[C@@H]3C[C@H]4CN(Cc5ccc(CSc6ccc(O)cc6)cc5)C[C@@]4(C(=O)CO)[C@@]3(C)C[C@H](O)[C@@]12F`, for which the results for the EC50 (on Glucocorticoid receptor [1]; in series [2]) were 2.1 nM and 1.6 nM, respectively. Moreover, in the series with RAW264.7, the IC50 was determined as 0.44 nM. Moreover, the pKa in the series “physchem” is 6.95. The compound further came in with a Ki on Glucocorticoid receptor [3] of 0.62 nM.
What is called MRT last is a mean duration of stay, worked out from the concentration-time curve. For orientation: AUC(0-t) means exposure summed from dosing to a finite time, without extrapolation to infinity. Lower therefore signals less exposure. Take `C[C@]12C=CC(=O)C=C1[C@@H](F)C[C@H]1[C@@H]3C[C@H]4CN(Cc5cccc(Cl)c5)C[C@@]4(C(=O)CO)[C@@]3(C)C[C@H](O)[C@@]12F.Cl`: the MRT last was found to be 1.1 h in series [5] and 6.4 h in series [8]. Besides, the Cmax came to 9.03 nmol/g in series [6] and 90 nM in [10]. This compound also yielded an AUClast in series [7] of 9 nmol·h/g. This compound also displayed an AUC(0-t) in series [9] of 0.12 µM·h.
As for `C[C@]12C=CC(=O)C=C1[C@@H](F)C[C@H]1[C@@H]3C[C@H]4CN(Cc5cccc(Cl)c5)C[C@@]4(C(=O)SCF)[C@@]3(C)C[C@H](O)[C@@]12F`, the EC50 on Glucocorticoid receptor [1] was 45 nM; in [2], above 3000 nM.
As a reminder, the inhibition in vivo is the percentage by which the read-out fell short of the control. Regarding `C[C@]12C=CC(=O)C=C1[C@@H](F)C[C@H]1[C@@H]3C[C@H]4CN(Cc5cccc(Cl)c5)C[C@@]4(C(=O)CO)[C@@]3(C)C[C@H](O)[C@@]12F`, the EC50 was 1.8 nM at Glucocorticoid receptor [1] and 2.5 nM in series [2]. For the same compound, the results for the MRT last in [5] and in series [8] were 1.4 h and 16.7 h, respectively. Also, the inhibition in vivo at 0.3 mg/kg in the series on Rattus norvegicus [11] turned out to be 64%. Further, in the series on Rattus norvegicus [12], the ED50 is 0.097 µmol/kg. Further, the inhibition in vivo at 0.1 mg/kg with Rattus norvegicus [13] was found to be 56%. This compound also gave an IC50 in the series on RAW264.7 of 0.08 nM. Further, the results for the Cmax in [6] and in series [10] were 64.26 nmol/g and 110 nM, respectively. Besides, the inhibition in vivo at 0.03 mg/kg with Rattus norvegicus [14] came to 47%. Besides, the AUClast in [7] was found to be 871.2 nmol·h/g. Also, the inhibition in vivo at 1 mg/kg in the series on Rattus norvegicus [15] turned out to be 92%. Also, in series [9], the AUC(0-t) came out at 0.118 µM·h. In the series listed under Rattus norvegicus [16], the “inhibition (INH)” value is above 80%. This compound also registered a pKa in “physchem” of 6.64. Moreover, on Glucocorticoid receptor [3], the Ki was determined as 0.76 nM.
Take `CCCC1O[C@@H]2C[C@H]3[C@@H]4CCC5=CC(=O)C=C[C@]5(C)[C@H]4[C@@H](O)C[C@]3(C)[C@]2(C(=O)CO)O1` (stereo not given in full) [BUDESONIDE]: the mean residence time MRT last in [5] worked out at 1.2 h; in [8] it was 0.71 h. Besides, the inhibition in vivo at 0.3 mg/kg with Rattus norvegicus [11] amounted to 45%. Further, in the series on Rattus norvegicus [12], the ED50 was 0.34 µmol/kg. In the series with Rattus norvegicus [13], the inhibition in vivo at 0.1 mg/kg is 29%. The same compound gave an IC50 in the series with RAW264.7 of 0.82 nM. In addition, the results for the Cmax in series [6] and in [10] were 18.67 nmol/g and 127 nM, respectively. This compound also returned an AUClast in series [7] of 110.03 nmol·h/g. Also, the inhibition in vivo at 1 mg/kg with Rattus norvegicus [15] is 73%. The AUC(0-t) in [9] is 11.6 µM·h. In addition, the inhibition result in the series listed under Rattus norvegicus [16] was “inactive”. For the same compound, the inhibition in vivo at 3 mg/kg with Rattus norvegicus [17] worked out at 84%.
Consider `CN(C)C(=O)[C@@]12CN(Cc3ccccc3)C[C@@H]1C[C@H]1[C@@H]3C[C@H](F)C4=CC(=O)C=C[C@]4(C)[C@@]3(F)[C@@H](O)C[C@@]12C`, for which the EC50 is 40.3 nM on Glucocorticoid receptor [1] and above 3000 nM in series [2]. This compound also displayed a pKa in “physchem” of 7.3. Further, the Ki on Glucocorticoid receptor [3] came to 1.1 nM.
`C[C@@H]1C[C@H]2[C@@H]3C[C@H](F)C4=CC(=O)C=C[C@]4(C)[C@@]3(F)[C@@H](O)C[C@]2(C)[C@@]1(OC(=O)c1ccco1)C(=O)SCF` [FLUTICASONE FUROATE]: the MRT last in series [5] was found to be 1.4 h; in series [8], 9.5 h. Also, half-maximal inhibition with RAW264.7 (IC50) required 0.1 nM. Besides, the Cmax was found to be 77.1 nmol/g in [6] and 45 nM in series [10]. Besides, the AUClast in series [7] turned out to be 1049 nmol·h/g. In addition, in series [9], the AUC(0-t) is 0.05 µM·h. In the series listed under Rattus norvegicus [16], the “inhibition (INH)” value is above 80%.
